Source: patent US9708292B2, “Cyanopyrimidine derivative” (OTSUKA PHARMACEUTICAL CO., LTD., priority 2009, dated 2017)
Where a name gives a salt, the structure may show the parent alone. Read-outs that look alike come from different tables or passages of the source. Each block holds one compound with its values, some of them ahead of it.

Experiments:
[1] = biological target: T1, adenosine A2a receptor (Human) (Homo sapiens, UniProt P29274); experiment: c-AMP generating action in cell expressing adenosine A2a receptor; assay type: cell-based
T1 construct: host or cells: HEK293
Procedure: Test 1: c-AMP Generating Action in Cell Expressing Adenosine A2a Receptor
The test was carried out as mentioned below with reference to the method disclosed in the reference (Klotz k. N. et al., Naunyn-Schmiedeberg's Arch. Pharmacol., (1998) 357, 1-9; Shryock J. C. et al., Molecular Pharmacology, (1998) 53, 886-893).
As to the cell to be used in the test, HEK293 cell expressing adenosine A2a receptor (Human) (PerkinElmer Life Sciences, Code No. RBHA2AC) was used.
As to the culture medium, Dulbecco's modified Eagles medium (DMEM) including 10% FBS (Fetal bovine serum) and 1 mM of sodium pyruvate was used.
The cell was placed on 96 well plate (1×10^5/well), and cultured overnight. After removing off the supernatant, 0.1 ml of DMEM (without FBS) containing 20 mM HEPES, 0.1 mM IBMX (3-isobutyl-1-methylxanthine) and 2 unit/mL adenosine deaminase were added to each well, and they were incubated at 37° C. for 30 minutes. Then, 0.1 ml of the culture medium containing the DMSO solution of the test compound in the predetermined concentration was added to each well, and they were incubated for additional 30 minutes. After removing off the supernatant, the cytolytic solution was added thereto to quench the reaction. The amount of c-AMP in each well was measured by using the c-AMP enzyme immunoassay (EIA) system (Amersham Biosciences, Code No. RPN225).
The same assay was repeated using CGS-21680 (2-p-carboxyethyl)phenethylamino-5′-N-ethylcarboxamidoadenosine hydrochloride, (Sigma, code C141) as a reference compound.
The amount of resultant c-AMP in the reference medium, caused by 1 μM of the reference compound, was defined to be 100%. The amount of resultant c-AMP in each test medium was measured, and the concentration producing 50% c-AMP amount was calculated based on the results of each test compound in the predetermined concentration, which is defined as EC50 value.

[2] = system: Rabbit corneal epithelium cell; experiment: Effect on corneal epithelium cell after UVA irradiation (neutral red uptake assay); assay type: cell-based; conditions: 60 min incubation, UVA 3.5 mW/cm^2 for 70 min, viability after 24 hours
Procedure: Test 2: Effect of the Compound of Example 1 to Corneal Epithelium Cell [Method]
Rabbit corneal epithelium cell (KURABO) was used as the cell for the test. To the rabbit corneal epithelium cell placed on 96 well plate was added the compound of Example 1, and the sample was incubated for 60 minutes. Then, the sample was irradiated with UVA (3.5 mW/cm^2) for 70 minutes using a solar simulator (SOL500). After that, the cell was washed with a buffer. After 24 hours, the cell viability was evaluated by the neutral red uptake assay.

ciliary artery = experiment: Vascular relaxation of isolated ciliary artery contracted with High K+-krebs solution; parameters: species or system Rabbits
Procedure: Rabbits were sacrificed with an overdose of sodium pentobarbital by intravenous administration. The eyes were enucleated and ciliary arteries were isolated. Vascular rings were cut 2 mm in length from ciliary arteries and set to Danish Multi Myograph System 610M (Danish myo technology) under microscopic observation. The vessels were equilibrated in oxygenated krebs solution with 5% CO2 and 95% O2 at 37° C.
To confirm the endothelium damage of vessels, the relaxation of ciliary artery by 100 μM carbachol was tested. If relaxation by carbachol was more than 30%, the vessels whose endothelium had no damage were used for the experiments.
After ciliary artery was contracted with High K^+-krebs solution, the compound of Example 1 was serially administrated to chamber from 0.3 μM to 300 μM. The tension was measured by Myodaq ver 2.01 (Danish myo technology).

[3] = system: retinal ganglion cell (RGC); experiment: Neuroprotection: cell survival of purified retinal ganglion cells; assay type: cell-based, Long Evans rat; conditions: five days of culture, control = 0%, BDNF (50 ng/mL) = 100%, Mean ± SE
Procedure: This experiment was performed according to a method reported by Otori et al. (Invest Opthalmol Vis Sci. 39: 972-981, 1998).
Eyes were enucleated from 7 day old Long Evans rat. Retinas were isolated from the eyes. The retinas were dissociated by incubating with Neurobasal medium including 15 U/mL papain at 37° C. for 30 minutes. The retinal suspension was prepared.
The retinal suspension was incubated in anti-SIRP antibody (Chemicon)-coated flask at room temperature for 30 minutes. The non adherent cells were placed in anti-thy-1 antibody (Chemicon)-coated flask. The cells were incubated at room temperature for 30 minutes. Finally the adherent cells in flask were washed with Neurobasal medium. After centrifugation at 800 rpm for 5 minutes, the purified RGC was prepared. The cells were seeded on glass coverslips that had been coated with poly-L-lysine and laminin. The purified RGC were cultured in Neurobasal medium containing B27 supplement, 1 mM glutamine 50 ng/mL CNTF, 10 μM Forskolin. Culture was maintained at 37° C. in humidified atmosphere containing 5% CO2 and 95%, air. BDNF (50 ng/mL) or the compound of Example 1 at final concentration of 0 nM (control), 3 nM, 10 nM or 30 nM was administered immediately after cell seeding.
Cell survival (cell viability) was determined by counting stained RGC. Five days after culture started, RGC were stained with 1 μM Calcein-AM (Molecular probe). The number of RGC was counted using fluorescence microscope. The percentage of cell survival (cell viability) was calculated by using the counts of control group as 0%, and the counts of BDNF group as 100%.
The cell survival was calculated by using the counts of control groups as 0% and the counts of BDNF groups as 100%.

[4] = HEK293 cell expressing human adenosine A2a receptor, c-AMP by 1 μM CGS-21680 defined as 100%, read-out: A2a agonistic activity (EC50)

T1 sequence (P29274 whole entry): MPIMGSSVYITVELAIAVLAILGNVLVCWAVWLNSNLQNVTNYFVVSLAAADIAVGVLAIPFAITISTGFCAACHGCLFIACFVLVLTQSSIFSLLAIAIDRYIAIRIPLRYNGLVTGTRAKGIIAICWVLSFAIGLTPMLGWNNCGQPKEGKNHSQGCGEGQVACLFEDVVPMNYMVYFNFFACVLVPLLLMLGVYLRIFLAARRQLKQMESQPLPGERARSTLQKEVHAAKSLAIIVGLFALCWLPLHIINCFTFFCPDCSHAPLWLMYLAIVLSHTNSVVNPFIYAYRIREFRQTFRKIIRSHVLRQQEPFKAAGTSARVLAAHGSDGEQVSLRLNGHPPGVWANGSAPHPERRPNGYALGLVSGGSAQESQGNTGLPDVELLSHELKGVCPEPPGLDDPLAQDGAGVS

EC50 [1, 4]: 3.3 nM | EC50 (ciliary artery; Oryctolagus cuniculus, rabbit ciliary artery rings, High K+ contraction): 17 µM
Compound: CC(=O)Nc1ccc(-c2nc(SCc3cccc(CCC(=O)N4CCN(CC5CCNCC5)CC4)n3)nc(N)c2C#N)cc1 [Example 1, N-(4-(6-amino-5-cyano-2-((6-(3-oxo-3-(4-(piperidin-4-yl-methyl)piperazin-1-yl)propyl)pyridin-2-yl)methylthio)-pyrimidin-4-yl)phenyl)acetamide trihydrochloride]
cell viability ([2]; 0.25 mM): 106.3% | cell viability ([2]; 0.5 mM): 115.0% | cell viability ([2]; 1 mM): 100.7% | Relaxation (%) (ciliary artery; 0.3 μM): 2.6 ± 0.5% | Relaxation (%) (ciliary artery; 1 μM): 4.8 ± 1.2% | Relaxation (%) (ciliary artery; 3 μM): 7.9 ± 2.3% | Relaxation (%) (ciliary artery; 10 μM): 35.3 ± 14.4% | Relaxation (%) (ciliary artery; 30 μM): 65.6 ± 9.5% | Relaxation (%) (ciliary artery; 100 μM): 82.4 ± 3.7% | Relaxation (%) (ciliary artery; 300 μM): 90.1 ± 2.4% | Cell survival (%) ([3]; 3 nM): 10.9 ± 7.0% | Cell survival (%) ([3]; 10 nM): 46.5 ± 7.0% | Cell survival (%) ([3]; 30 nM): 41.9 ± 5.5%

EC50 [1, 4]: 2.9 nM
Compound: CC(=O)Nc1ccc(-c2nc(SCc3cccc(CCC(=O)N4CCN(CC5CCN(CCO)CC5)CC4)n3)nc(N)c2C#N)cc1 [Example 2, N-(4-(6-amino-5-cyano-2-((6-(3-(4-((1-(2-hydroxyethyl)-piperidin-4-yl)methyl)piperazin-1-yl)-3-oxopropyl)pyridin-2-yl)methylthio)pyrimidin-4-yl)phenyl)acetamide maleate]

EC50 [1, 4]: 1.8 nM
Compound: CC(=O)Nc1ccc(-c2nc(SCc3cccc(CCC(=O)N4CCN(CC5CCN(CCCO)CC5)CC4)n3)nc(N)c2C#N)cc1 [Example 3, N-(4-(6-amino-5-cyano-2-((6-(3-(4-((1-(3-hydroxy-propyl)piperidin-4-yl)methyl)piperazin-1-yl)-3-oxopropyl)-pyridin-2-yl)methylthio)pyrimidin-4-yl)phenyl)acetamide]

Compound: CC(=O)Nc1ccc(-c2nc(SCc3cccc(CCC(=O)N4CCN(CC5CCN(CCF)CC5)CC4)n3)nc(N)c2C#N)cc1 [Example 4, N-(4-(6-amino-5-cyano-2-((6-(3-(4-((1-(2-fluoroethyl)-piperidin-4-yl)methyl)piperazin-1-yl)-3-oxopropyl)pyridin-2-yl)methylthio)pyrimidin-4-yl)phenyl)acetamide]
EC50 [1]: 6.1 nM

EC50 [1, 4]: 8.4 nM
Compound: COC(=O)CCN1CCC(CN2CCN(C(=O)CCc3cccc(CSc4nc(N)c(C#N)c(-c5ccc(NC(C)=O)cc5)n4)n3)CC2)CC1 [Example 5, N-(4-(6-amino-5-cyano-2-((6-(3-(4-((1-(2-methoxy-carbonylethyl)piperidin-4-yl)methyl)piperazin-1-yl)-3-oxopropyl)pyridin-2-yl)methylthio)pyrimidin-4-yl)phenyl)-acetamide]
